Experimental data from US20040197335A1, “Non-myeloablative tolerogenic treatment with tyrphostins” (priority 2003, published 2004).
Read-outs that look alike come from different tables or passages of the source.

Experiments:
[1] = test system: Human PBMC incubated with MHC-mismatched PBMC; assay: One-way mixed lymphocyte reaction (primary MLR), [3H]TdR uptake; type: cell-based; details: for inhibition at 25 µM / inhibition at 50 µM / cpm ± SD: Table 3; for IC50: Table 5, some values marked (mean), read-out: IC 50% (inhibition of Primary MLR); for cpm ± SD: no tyrphostin 30,520 cpm
Description: Cell sources: Human peripheral blood mononuclear cells (PBMC) were obtained from healthy human donors after separation on Ficoll-Paque density gradient essentially as described in Boyum, A. Scand. J Lab. Invest. […] Reagents:
One-way mixed lymphocyte reaction (MLR assay): Responding cells derived from donor A (5×10^4) were cultured in round-bottom microwell plates with an equal number (5×10^4) of irradiated (6000 cGy) donor B PBMC with and without tyrphostins. […] During the last 18 hours of incubation, cultures were pulsed with 2 μCi of [^3H] TdR.
(§1) Harvesting and radioactivity determination: Harvesting was carried out by a multiple-sample cell harvester and radioactivity, expressed in counts per minutes (cpm), was determined in a liquid scintillation β-counter.
Human PBMC were incubated either with autologous or with MHC-mismatched PBMC in a one-way MLR assay, with and without various concentrations of tyrphostins, as is described hereinabove.
In this case, the alloreactive response without the tyrphostins was considered as 100% response. Percentage of response was calculated according to the following formula: b/a×100; where a=cpm in cultures without tyrphostin, b=cpm in cultures with tyrphostin.

[2] = test system: Human PBMC stimulated with phytohemagglutinin (PHA); assay: Primary mitogenic response assay (PHA), [3H]TdR uptake; type: cell-based; details: Table 6, tyrphostin 20 μM; for inhibition at 20 µM: Homo sapiens, PBMC, 96 h; for cpm ± SD: PHA without tyrphostin 14,959±644, medium 155±37
Description: Mitogens: Phytohemagglutinin (PHA) and concanavalin A (Con-A) were dissolved in saline and diluted to their final concentration in culture medium. Anti-CD3 (OK3 stock solution 1 μg/ml) was diluted to 0.2 μg/ml final concentration in culture medium.
Responding PBMC cells (10^5) derived from donor A were cultured in flat-bottom microwell plates with and without tyrphostins, and with phytohemagglutinin (PHA) 1 μg/ml, or concanavalin A 18 μg/ml. […] During the last 18 hours of incubation, cultures were pulsed with 1 μCi of [^3H] TdR.
as §1

[3] = Homo sapiens, PBMC, 144 h, primary MLR, tyrphostin 25 μM
[4] = Homo sapiens, PBMC, 144 h, primary MLR, tyrphostin 50 μM

Row | SMILES | IC50 ([1]; Homo sapiens, PBMC) [µM] | inhibition at 20 µM ([2]; mitogenic response) [%] | cpm ± SD [2] | also measured
1 | COc1cc2ncnc(Nc3ccc(C(N)=O)cc3)c2cc1OC [Tyr 8, 4-(6,7-dimethoxyquinazoline-4-yl-amino)-benzamide] | 43 |  |  | inhibition at 25 µM [1, 3]: 49%; inhibition at 50 µM [1, 4]: 63%; cpm ± SD ([1]; primary MLR, tyrphostin 25 μM): 12,452 cpm; cpm ± SD ([1]; primary MLR, tyrphostin 50 μM): 11,293 cpm
2 | COc1cc2ncnc(Nc3ccc(O)cc3)c2cc1OC [Tyr 9, 4-(6,7-dimethoxyquinazoline-4-yl-amino)-phenol] | 26 | 70 | 4,582 ± 617 cpm | inhibition at 25 µM [1, 3]: 95%; inhibition at 50 µM [1, 4]: 99%; cpm ± SD ([1]; primary MLR, tyrphostin 25 μM): 1,367 cpm; cpm ± SD ([1]; primary MLR, tyrphostin 50 μM): 371 cpm
3 | CC(C)(C)n1nc(-c2cccs2)c2c(N)ncnc21 [Tyr 15, 4-amino-1-t-butyl-3-(2-thiophene)pyrazolo[3,4-d]pyrimidine] |  |  |  | IC50 [1]: 7 µM
4 | COc1ccc(-c2nn(C(C)(C)C)c3ncnc(N)c23)cc1OC [Tyr 19, 4-amino-1-t-butyl-3-(3,4-dimethoxyphenyl)-pyrazolo[3,4-d]pyrimidine] | 3 | 96 | 553 ± 59 cpm | inhibition at 10 µM ([1]; Homo sapiens, PBMC, 144 h, Table 4, primary MLR, tyrphostin 10 μM): 63%; inhibition at 20 µM ([1]; Homo sapiens, PBMC, 144 h, Table 4, primary MLR, tyrphostin 20 μM): 80%
5 | CC(C)(C)c1cc(C=C(C#N)C(N)=S)cc(C(C)(C)C)c1O [Tyr 23, 2-cyano-3-(3,5-di-t-butyl-4-hydroxyphenyl)-thioacrylamide] |  | 68 | 4,831 ± 1026 cpm | 
6 | N#CC(=Cc1c[nH]c2ccccc12)c1[nH]nc(N)c1C#N [Tyr 24, 3-amino-5-[1-cyano-2-(1H-indol-3-yl)vinyl]-1H-pyrazole-4-carbonitrile] |  | 96 | 533 ± 45 cpm | 
7 | N#CC(=Cc1ccc(O)c(O)c1)C(=S)NCc1ccccc1 [Tyr 26, N-benzyl-2-cyano-3-(3,4-dihydroxyphenyl)-thioacrylamide] |  | 70 | 4,295 ± 221 cpm | 
8 | N#CC(=Cc1cc(O)c(O)c(I)c1)C(=O)NCCCc1ccccc1 [Tyr 32, 2-cyano-3-(3,4-dihydroxy-5-iodophenyl)-N-(4-phenylpropyl)-acrylamide] |  |  | 6,303 ± 1205 cpm | % Inhibition ([2]; mitogenic response): 58%
